The test concerns the target Wild type FGFR2 (Homo sapiens (Human), UniProt P21802). Description: FGFR2 kinase assay (fluorescence-based microfluidic mobility shift assay). In kind it is biochemical.
The mark [1] stands for this setting: wild type FGFR2 0.06 nM, 100 μM ATP, 80 minutes at room temperature, class symbols.
Setting [2] is: wild type FGFR2 0.06 nM, 100 μM ATP, 80 minutes at room temperature, given as numeric bound.

One may read the IC50 as the concentration needed to halve the response being measured.

Like-named read-outs stand apart in the source and are kept apart here. Where only a bound is given, the exact number is not on record here.

Wild type FGFR2, sequence (P21802 22-821): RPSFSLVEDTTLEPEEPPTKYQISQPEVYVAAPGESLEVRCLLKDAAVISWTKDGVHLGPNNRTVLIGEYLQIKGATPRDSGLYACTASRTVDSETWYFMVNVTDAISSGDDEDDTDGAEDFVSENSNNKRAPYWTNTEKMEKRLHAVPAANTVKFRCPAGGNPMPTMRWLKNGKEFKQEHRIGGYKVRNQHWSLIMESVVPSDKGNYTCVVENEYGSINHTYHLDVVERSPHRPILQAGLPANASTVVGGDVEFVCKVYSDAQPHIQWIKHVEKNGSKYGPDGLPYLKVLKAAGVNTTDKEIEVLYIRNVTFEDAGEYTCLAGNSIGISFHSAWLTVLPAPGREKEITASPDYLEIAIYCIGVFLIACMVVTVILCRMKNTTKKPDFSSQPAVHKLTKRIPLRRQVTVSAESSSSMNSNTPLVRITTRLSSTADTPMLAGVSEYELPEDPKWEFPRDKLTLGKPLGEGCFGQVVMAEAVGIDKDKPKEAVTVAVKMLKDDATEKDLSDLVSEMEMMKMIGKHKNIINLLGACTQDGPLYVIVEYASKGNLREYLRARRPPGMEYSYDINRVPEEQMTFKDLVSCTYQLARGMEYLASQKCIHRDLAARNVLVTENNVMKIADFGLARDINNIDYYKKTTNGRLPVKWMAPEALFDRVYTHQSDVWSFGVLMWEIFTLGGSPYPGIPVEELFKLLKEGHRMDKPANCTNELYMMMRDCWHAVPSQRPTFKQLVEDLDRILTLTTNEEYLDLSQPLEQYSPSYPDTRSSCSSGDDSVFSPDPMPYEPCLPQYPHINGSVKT

In the case of `C=CC(=O)N1C[C@@H](n2nc(C#Cc3ccc4ccnn4c3)c(C(N)=O)c2NC)C[C@@H]1COC` [Example 67, 1-[(3S,5R)-5-(Methoxymethyl)-1-(prop-2-enoyl)pyrrolidin-3-yl]-5-(methylamino)-3-(2-[pyrazolo[1,5-a]pyridin-6-yl]ethynyl)pyrazole-4-carboxamide], the IC50 under setting [1] is no more than 100 nM. On to `C=CC(=O)N1C[C@@H](n2nc(C#Cc3c(F)cc4c(nc(C)n4CC)c3F)c(C(N)=O)c2NC)C[C@@H]1COC` [Example 16, 1-((3S,5R)-1-acryloyl-5-(methoxymethyl)pyrrolidin-3-yl)-3-((1-ethyl-4,6-difluoro-2-methyl-1H-benzo[d]imidazol-5-yl)ethynyl)-5-(methylamino)-1H-pyrazole-4-carboxamide], for which the IC50 under setting [1] was no more than 100 nM.

As for `C=CC(=O)N1C[C@@H](n2nc(C#Cc3ccc4c(nc(C)n4CC)c3F)c(C(N)=O)c2NC)C[C@@H]1COC` [Example 21, 1-((3S,5R)-1-acryloyl-5-(methoxymethyl)pyrrolidin-3-yl)-3-((1-ethyl-4-fluoro-2-methyl-1H-benzo[d]imidazol-5-yl)ethynyl)-5-(methylamino)-1H-pyrazole-4-carboxamide], under setting [1], the IC50 was no more than 100 nM. As for `C=CC(=O)N1C[C@@H](n2nc(C#Cc3cc4ncc(C#N)n4cc3F)c(C(N)=O)c2NC)C[C@@H]1COC` [Example 262, 3-(2-{3-Cyano-6-fluoroimidazo[1,2-a]pyridin-7-yl}ethynyl)-1-[(3S,5R)-5-(methoxymethyl)-1-(prop-2-enoyl)pyrrolidin-3-yl]-5-(methylamino)pyrazole-4-carboxamide], the concentration for half-maximal inhibition (IC50) under setting [1] was no more than 100 nM. On the same count and under the same terms, the result for `C=CC(=O)N1C[C@@H](n2nc(C#Cc3ccc4ncn(C(F)F)c4c3)c(C(N)=O)c2NC)C[C@@H]1COC` [Example 73, 3-[2-[3-(Difluoromethyl)-1,3-benzodiazol-5-yl]ethynyl]-1-[(3S,5R)-5-(methoxymethyl)-1-(prop-2-enoyl)pyrrolidin-3-yl]-5-(methylamino)pyrazole-4-carboxamide] reads no more than 100 nM. Same read-out and setting: the result for `C=CC(=O)N1C[C@@H](n2nc(C#Cc3ccc4c(c3)nc(C)n4CC)c(C(N)=O)c2NC)C[C@@H]1COC` [Example 3, 3-[2-(1-ethyl-2-methyl-1,3-benzodiazol-5-yl)ethynyl]-1-[(3S,5R)-5-(methoxymethyl)-1-(prop-2-enoyl)pyrrolidin-3-yl]-5-(methylamino)pyrazole-4-carboxamide] reads no more than 100 nM.

Turning to `C=CC(=O)N1C[C@@H](n2nc(C#Cc3ccn4nccc4n3)c(C(N)=O)c2NC)C[C@@H]1COC` [Example 53, 1-[(3S,5R)-5-(Methoxymethyl)-1-(prop-2-enoyl)pyrrolidin-3-yl]-5-(methylamino)-3-(2-[pyrazolo[1,5-a]pyrimidin-5-yl]ethynyl)pyrazole-4-carboxamide], under setting [1], the IC50 lay in the range of 100 to 1000 nM. The same measure, in the same setting: to `C=CC(=O)N1C[C@@H](n2cc(C#Cc3cc(F)c4c(c3)ncn4C)c(C(N)=O)c2NC)C[C@@H]1COC` [Example 121, 1-((3S,5S)-1-Acryloyl-5-(methoxymethy)pyrrolidin-3-yl)-3-((7-fluoro-1-methyl-1H-benzo[d]imidazol-5-yl)ethynyl)-5-(methylamino)-1H-pyrazole-4-carboxamide] belongs no more than 100 nM. Still for that read-out and setting: the result for `C=CC(=O)N1C[C@@H](n2nc(C#Cc3nc4ccccc4o3)c(C(N)=O)c2NC)C[C@@H]1COC` [Example 114, 3-[2-(1,3-Benzoxazol-2-yl)ethynyl]-1-[(3S,5R)-5-(methoxymethyl)-1-(prop-2-enoyl)pyrrolidin-3-yl]-5-(methylamino)pyrazole-4-carboxamide] reads no more than 100 nM. With `C=CC(=O)N1C[C@@H](n2nc(C#Cc3cn4ccccc4n3)c(C(N)=O)c2NC)C[C@@H]1COC` [Example 104, 3-(2-[Imidazo[1,2-a]pyridin-2-yl]ethynyl)-1-[(3S,5R)-5-(methoxymethyl)-1-(prop-2-enoyl)pyrrolidin-3-yl]-5-(methylamino)pyrazole-4-carboxamide], the concentration for half-maximal inhibition (IC50) under setting [2] is greater than 500 nM.

Regarding `C=CC(=O)N1C[C@@H](n2nc(C#Cc3cc4ncn(C)c4cc3F)c(C(N)=O)c2NC)C[C@@H]1COC` [Example 40, 3-[2-(6-fluoro-1-methyl-1,3-benzodiazol-5-yl)ethynyl]-1-[(3S,5)-5-(methoxymethyl)-1-(prop-2-enoyl)pyrrolidin-3-yl]-5-(methylamino)pyrazole-4-carboxamide], the 50% inhibitory concentration (IC50) under setting [1] was no more than 100 nM. Still for that read-out and setting: the result for `C=CC(=O)N1C[C@@H](n2nc(C#Cc3cc4nc(C)n(C5CC5)c4cc3Cl)c(C(N)=O)c2N)C[C@@H]1COC` [Example 214, 5-Amino-3-[2-(6-chloro-1-cyclopropyl-2-methyl-1,3-benzodiazol-5-yl)ethynyl]-1-[(3S,5R)-5-(methoxymethyl)-1-(prop-2-enoyl)pyrrolidin-3-yl]pyrazole-4-carboxamide] reads no more than 100 nM; that for `C=CC(=O)N1CC[C@H](n2nc(C#Cc3cc4ncn(C)c4c(F)c3F)c(C(N)=O)c2NC)C1` [Example 145, 3-[2-(6,7-Difluoro-1-methyl-1,3-benzodiazol-5-yl)ethynyl]-5-(methylamino)-1-[(3S)-1-(prop-2-enoyl)pyrrolidin-3-yl]pyrazole-4-carboxamide], no more than 100 nM; that for `C=CC(=O)N1CC[C@H](n2nc(C#Cc3c(F)cc4c(ncn4C4CC4)c3F)c(C(N)=O)c2NC)C1` [Example 186, 3-[2-(1-Cyclopropyl-4,6-difluoro-1,3-benzodiazol-5-yl)ethynyl]-5-(methylamino)-1-[(3S)-1-(prop-2-enoyl)pyrrolidin-3-yl]pyrazole-4-carboxamide], no more than 100 nM. Still for that read-out and setting: the result for `C=CC(=O)N1CC[C@H](n2nc(C#Cc3cc4ncn(C5CC5)c4cc3F)c(C(N)=O)c2NC)C1` [Example 136, 3-[2-(1-Cyclopropyl-6-fluoro-1,3-benzodiazol-5-yl)ethynyl]-5-(methylamino)-1-[(3S)-1-(prop-2-enoyl)pyrrolidin-3-yl]pyrazole-4-carboxamide] reads no more than 100 nM; that for `C=CC(=O)N1CC[C@H](n2nc(C#Cc3cc4ncn(CC)c4cc3F)c(C(N)=O)c2NC)C1` [Example 143, 3-[2-(1-Ethyl-6-fluoro-1,3-benzodiazol-5-yl)ethynyl]-5-(methylamino)-1-[(3S)-1-(prop-2-enoyl)pyrrolidin-3-yl]pyrazole-4-carboxamide], no more than 100 nM; that for `C=CC(=O)N1C[C@@H](n2nc(C#Cc3cc4nc5n(c4cc3F)CCC5)c(C(N)=O)c2NC)C[C@@H]1COC` [Example 260, 1-((3S,5R)-1-acryloyl-5-(methoxymethyl)pyrrolidin-3-yl)-3-((7-fluoro-2,3-dihydro-1H-benzo[d]pyrrolo[1,2-a]imidazol-6-yl)ethynyl)-5-(methylamino)-1H-pyrazole-4-carboxamide], no more than 100 nM. Same read-out and setting: the result for `C#CC(=O)N1C[C@@H](n2nc(C#Cc3cc4ncn(C5CC5)c4cc3F)c(C(N)=O)c2NC)C[C@@H]1COC` [Example 182, 3-((1-Cyclopropyl-6-fluoro-1H-benzo[d]imidazol-5-yl)ethynyl)-1-((3S,5R)-5-(methoxymethyl)-1-propioloylpyrrolidin-3-yl)-5-(methylamino)-1H-pyrazole-4-carboxamide] reads no more than 100 nM; that for `C=CC(=O)N1C[C@@H](n2nc(C#Cc3cc4ncn(CC)c4c(F)c3Cl)c(C(N)=O)c2NC)C[C@@H]1COC` [Example 126, 3-[2-(6-Chloro-1-ethyl-7-fluoro-1,3-benzodiazol-5-yl)ethynyl]-1-[(3S,5R)-5-(methoxymethyl)-1-(prop-2-enoyl)pyrrolidin-3-yl]-5-(methylamino)pyrazole-4-carboxamide], no more than 100 nM; that for `C=CC(=O)N1C[C@@H](n2nc(C#Cc3cccc4c3cnn4C3CC3)c(C(N)=O)c2NC)C[C@@H]1COC` [Example 276, 3-[2-(1-Cyclopropylindazol-4-yl)ethynyl]-1-[(3S,5R)-5-(methoxymethyl)-1-(prop-2-enoyl)pyrrolidin-3-yl]-5-(methylamino)pyrazole-4-carboxamide], no more than 100 nM. With `C=CC(=O)N1C[C@@H](n2nc(C#Cc3c(F)cc4c(ncn4C)c3F)c(C(N)=O)c2NC)C[C@@H]1COC(F)(F)F` [Example 84], under setting [1], the IC50 was no more than 100 nM. Same read-out and setting: to `C=CC(=O)N1CC(n2nc(C#Cc3cc4ncn(C5CC5)c4cc3F)c(C(N)=O)c2NC)C1` [Example 175, 3-[2-(1-cyclopropyl-6-fluoro-1,3-benzodiazol-5-yl)ethynyl]-5-(methylamino)-1-[1-(prop-2-enoyl)azetidin-3-yl]pyrazole-4-carboxamide] belongs no more than 100 nM.

Consider `C=CC(=O)N1C[C@@H](n2nc(C#Cc3ccc4ncnn4c3)c(C(N)=O)c2NC)C[C@@H]1COC` [Example 106, 1-[(3S,5R)-5-(Methoxymethyl)-1-(Prop-2-enoyl)pyrrolidin-3-yl]-5-(methylamino)-3-(2-[[1,2,4]triazolo[1,5-a]pyridin-6-yl]ethynyl)pyrazole-4-carboxamide], for which the IC50 under setting [2] is greater than 500 nM. Regarding `C=CC(=O)N1C[C@@H](n2nc(C#Cc3cc4nccc(C)c4cc3F)c(C(N)=O)c2NC)C[C@@H]1COC` [Example 274, 3-[2-(6-Fluoro-4-methylquinolin-7-yl)ethynyl]-1-[(3S,5R)-5-(methoxymethyl)-1-(prop-2-enoyl)pyrrolidin-3-yl]-5-(methylamino)pyrazole-4-carboxamide], the IC50 was less than 100 nM. On to `C=CC(=O)N1C[C@@H](n2nc(C#Cc3c(F)cc4c(ncn4CC)c3F)c(C(N)=O)c2NC)C[C@@H]1COC(F)(F)F` [Example 85, 3-[2-(1-Ethyl-4,6-difluoro-1,3-benzodiazol-5-yl)ethynyl]-5-(methylamino)-1-[(3S,5R)-1-(prop-2-enoyl)-5-[(trifluoromethoxy)methyl]pyrrolidin-3-yl]pyrazole-4-carboxamide], for which the IC50 under setting [1] is no more than 100 nM. Still for that read-out and setting: the result for `C=CC(=O)N1C[C@@H](n2nc(C#Cc3cc4nc(C)n(C5CC5)c4cc3Cl)c(C(N)=O)c2NCCO)C[C@@H]1COC` [Example 253, 1-((3S,5R)-1-Acryloyl-5-(methoxymethyl)pyrrolidin-3-yl)-3-((6-chloro-1-cyclopropyl-2-methyl-1H-benzo[d]imidazol-5-yl)ethynyl)-5-((2-hydroxyethyl)amino)-1H-pyrazole-4-carboxamide] reads no more than 100 nM.
